The NIST ThermoML archive (doi:10.1021/je0604232)

Experiment: molar heat capacity at constant pressure; xn = mol fraction of the nth substance listed
Details: 101 kPa, Liquid

NCCCO [3-amino-1-propanol] + O
molar heat capacity at constant pressure [J/K/mol]
Details | x1 = 0.0999 | x1 = 0.2001 | x1 = 0.3003 | x1 = 0.4015 | x1 = 0.4996 | x1 = 0.6006 | x1 = 0.7003 | x1 = 0.8003 | x1 = 0.8966 | x1 = 1
303.15 K | 94 | 108 | 120 | 131 | 143 | 155 | 168 | 180 | 193 | 204
308.15 K | 96 | 111 | 123 | 135 | 147 | 159 | 171 | 184 | 196 | 207
313.15 K | 97 | 112 | 124 | 136 | 148 | 160 | 172 | 185 | 197 | 208
318.15 K | 98 | 113 | 126 | 138 | 150 | 162 | 173 | 186 | 198 | 208
323.15 K | 99 | 115 | 128 | 140 | 152 | 163 | 175 | 187 | 199 | 209
328.15 K | 101 | 117 | 130 | 142 | 154 | 166 | 177 | 189 | 200 | 210
333.15 K | 103 | 119 | 132 | 145 | 157 | 169 | 179 | 191 | 202 | 211
338.15 K | 106 | 122 | 135 | 148 | 160 | 172 | 182 | 193 | 204 | 213
343.15 K | 110 | 126 | 139 | 151 | 163 | 175 | 185 | 196 | 206 | 214
348.15 K | 114 | 130 | 143 | 155 | 167 | 179 | 188 | 198 | 208 | 216
353.15 K | 119 | 135 | 147 | 160 | 172 | 183 | 192 | 201 | 210 | 217

NCCNCCO [N-(2-aminoethyl)ethanolamine] + O
molar heat capacity at constant pressure [J/K/mol]
Details | x1 = 0.0999 | x1 = 0.1999 | x1 = 0.2995 | x1 = 0.4 | x1 = 0.5002 | x1 = 0.5997 | x1 = 0.7011 | x1 = 0.8003 | x1 = 0.8979 | x1 = 1
303.15 K | 100 | 121 | 141 | 161 | 181 | 201 | 221 | 240 | 258 | 279
308.15 K | 103 | 125 | 145 | 165 | 185 | 205 | 226 | 245 | 263 | 284
313.15 K | 104 | 127 | 147 | 167 | 187 | 207 | 227 | 247 | 265 | 285
318.15 K | 106 | 129 | 150 | 170 | 190 | 209 | 229 | 249 | 266 | 286
323.15 K | 107 | 131 | 152 | 172 | 192 | 211 | 231 | 250 | 267 | 287
328.15 K | 110 | 134 | 155 | 175 | 195 | 214 | 233 | 252 | 269 | 289
333.15 K | 112 | 137 | 158 | 178 | 197 | 216 | 235 | 254 | 271 | 290
338.15 K | 116 | 141 | 162 | 181 | 201 | 219 | 238 | 257 | 273 | 292
343.15 K | 120 | 146 | 167 | 185 | 204 | 223 | 241 | 260 | 275 | 293
348.15 K | 124 | 152 | 172 | 189 | 208 | 227 | 244 | 262 | 277 | 295
353.15 K | 130 | 158 | 177 | 194 | 213 | 231 | 248 | 265 | 279 | 296
